Several values for one entry are separate records, joined by “and”; a condition that tells them apart may be missing. Equal values may be shown once. Entries after “also recorded” stand apart in the source; their conditions may differ.
How the values were obtained:
[1] = Liver microsome metabolic stability (RLM); type: in vitro ADME, rat; set-up: microsomal CLint at 1 μmol/L: unit not given here; settings: for half-life at 1 μmol/L: read-out: RLM T1/2
Description: (§1) We quantified S1–S15 and Zuranolone using a UPLC-MS/MS (Agilent 1290 Infinity II UHPLC (Agilent Technologies, Santa Clara, CA, USA) coupled with a QTRAP 5500 MS/MS (ESI source) (SCIEX, Redwood City, CA, USA for MS/MS). The method assessed the content level of S9 and Zuranolone in microsome metabolism and in rat brain tissue and plasma. An ACQUITY UPLC Peptide BEH C18 column (Waters; 50 × 2.1 mm, 1.7 μm; 60 °C; Waters Corporation, Milford, MA, USA) was used with a mobile phase of 0.02% propionic acid in water (A) and acetonitrile (B). The gradient elution of the mobile phase B is carried out as follows: it is 10% from 0 to 0.5 min, 90% from 0.8 to 2.5 min, and 10% from 2.8 to 3.5 min, with a flow rate of 0.40 mL/min. Quantitative analysis was performed on a QTRAP 5500 MS (SCIEX, Redwood City, CA, USA) in positive ionization mode with MRM (multiple reaction monitoring), using progesterone-d9 as the internal standard. MRM transitions and parameters were optimized for each analyte, with collision energies of 25 V (S1–S15), 23 V (Zuranolone), and 30 V (IS), and declustering potentials of 80 V (S1–S15), 90 V (Zuranolone), and 180 V (IS). Other conditions were as follows: curtain gas 10 psi, collision gas ‘medium’, ion spray voltage 5500 V, temperature 500 °C, and ionization source gases 1 and 2 at 50 psi.
(§2) To evaluate the metabolic stability of compounds S1–S15 and Zuranolone in RLM and HLM, we designed the following in vitro liver microsome metabolism assay protocol. In a 1.5 mL centrifuge tube, sequentially add 173 μL of PBS (0.1 M, pH 7.4), 5 μL of liver microsomes (20 mg/mL), and 2 μL of the test compound (100 μmol/L). After thorough mixing, pre-incubate at 37 °C for 10 min. Subsequently, add 20 μL of NADPH to initiate the metabolism, with a parallel control without NADPH, to validate the background signal. Samples were collected at 0, 5, 10, 20, 30, and 60 min post-reaction initiation. At each designated time point, we quenched the reaction with ice-cold acetonitrile (600 μL). After centrifuging the mixture, we analyzed the supernatant using UPLC-MS/MS. For data analysis, the compound concentration at 0 min was set as 100%, with concentrations at subsequent time points expressed as residual percentages relative to the initial value, and the in vitro half-life (T1/2) and intrinsic clearance (CLint) were calculated.

[2] = Liver microsome metabolic stability (HLM); type: in vitro ADME, human; set-up: microsomal CLint at 1 μmol/L: unit not given here; settings: for half-life at 1 μmol/L: read-out: HLM T1/2
Description: as §1, §2

[3] = Brain distribution in rats; type: in vivo, rat; settings: i.g. 24.4 μmol/kg
Description: as §1
Zuranolone was solubilized in 5% DMSO with solutol HS 15 in saline. S9 was solubilized in 10% DMSA with 30% SBECD (Zibo Qianhui Biological Technology Co., Ltd., Zibo, China) in saline. After fasting for 12 h, rats (n = 6 per group) were administered Zuranolone and S9 intragastrically (i.g.) at a dose of 24.4 μmol/kg, and intravenously (i.v.) at 6.1 μmol/kg. Blood samples (200 μL) were collected into 1.5 mL tubes containing heparin at 15 min, 30 min, 1, 2, 3, 4, 6, 8, 12, 24, 48, and 96 h after i.g. or at 5, 15, 30 min, and 1, 2, 3, 4, 6, 8, 12, 24, 48, 96 h after i.v. Plasma was separated by centrifugation for 5 min (8000 rpm, 4 °C) and stored at −80 °C immediately.

[4] = system: PTZ-induced acute seizures; assay: Pentylenetetrazole (PTZ)-induced seizure test; type: in vivo, rat; settings: rats; for effect on seizure incidence: oral 6, 12, 24 μmol/kg, PTZ 50 mg/kg; for latency to tonic seizures: n = 6
Description: PTZ can trigger dose-dependent tonic seizures through its antagonistic effects on GABAA receptor function. To evaluate target engagement at GABAA receptors, Zuranolone and S9 were tested in a PTZ-induced acute seizure model in rats, which is widely used to assess GABAergic activity. Based on their pharmacokinetic study results, S9 or Zuranolone was administered orally at the same doses (6, 12, and 24 μmol/kg) 1 h prior to PTZ challenge.
We randomly divided rats into 7 groups (n = 6): three same-dose groups for both Zuranolone and S9 (6, 12, 24 μmol/kg) and a vehicle control group (30% SBECD). PTZ can selectively antagonize the GABAA receptors at a dose below 60 mg/kg, while higher doses lead to non-competitive antagonism of GABAA receptors and activation of NMDA receptors. Thus, a dose of 50 mg/kg was applied in this experiment. After intragastric administration of the test drugs or vehicle for 1 h, the animals were injected intraperitoneally with PTZ saline solution at 50 mg/kg. The rats were then placed in observation chambers to monitor the latency of clonic seizures (seizures lasting ≥3 s with LORR) and tonic seizures (the rigid extension of limbs, forming an angle of more than 90° with the body plane) within 1 h.

[5] = system: loss of righting reflex; assay: Loss of righting reflex (LORR) test; type: in vivo, rat; settings: rats; for LORR threshold dose: intragastric
Description: We randomly assigned rats into 6 groups (n = 10): Zuranolone groups at doses of 9.8, 15.6, and 19.5 μmol/kg and S9 groups at doses of 38.9, 48.6, and 58.3 μmol/kg. The number of animals showing LORR, defined as the inability to turn over within 30 s while in the supine position, was recorded within 4 h following intragastric administration of the test drugs or vehicle.

| Structure (SMILES) | half-life at 1 μmol/L ([1]; pH 7.4, rat liver microsomes) [h] | half-life at 1 μmol/L ([2]; pH 7.4, human liver microsomes) [h] | AUCBrain 0–t [3] | Brain concentration ([3]; 0.5 h) | Brain concentration ([3]; 2 h) [nmol/kg] | Brain concentration ([3]; 6 h) | Brain concentration ([3]; 24 h) | effect on seizure incidence [4] | LORR threshold dose [5] [µmol/kg] | also measured |
| --- | --- | --- | --- | --- | --- | --- | --- | --- | --- | --- |
| C[C@@]1(O)CC[C@H]2[C@H](CC[C@@H]3[C@@H]2CC[C@]2(C)[C@@H](C(=O)Cn4cnn(-c5ccnc(OCC(F)(F)F)c5)c4=O)CC[C@@H]32)C1 [S9] | 3.1 | 2.57 | 30,969 nmol/kg·h and 30,969 ± 8450 nmol/kg·h | 189 nmol/kg and 189 ± 30 nmol/kg | 1895 ± 593 | 2132 nmol/kg and 2132 ± 683 nmol/kg | 175 nmol/kg and 175 ± 35 nmol/kg | neither compound significantly affected seizure incidence | 38.9 | fold longer T1/2 than Zuranolone ([1]; RLM): 4 fold; fold lower CLint than Zuranolone ([1]; RLM): 6.5 fold; microsomal CLint at 1 μmol/L ([1]; pH 7.4, rat liver microsomes, read-out: RLM intrinsic clearance (CLint)): 8000; fold longer T1/2 than Zuranolone ([2]; HLM): 1.2 fold; fold lower CLint than Zuranolone ([2]; HLM): 1.2 fold; microsomal CLint at 1 μmol/L ([2]; pH 7.4, human liver microsomes): 9000; F AUCBrain 0–t S9/Zuranolone (relative brain bioavailability) [3]: 324%; Latency to LORR ([5]; i.g. 48.6 μmol/kg): 68 min; Latency to LORR ([5]; i.g. 58.3 μmol/kg): 59 min |
| C[C@@]1(O)CC[C@H]2[C@H](CC[C@@H]3[C@@H]2CC[C@]2(C)[C@@H](C(=O)Cn4cc(C#N)cn4)CC[C@@H]32)C1 [Zuranolone] | 0.8 | 2.07 | 9549 nmol·h/kg and 9549 ± 2529 nmol·h/kg | 3103 nmol/kg and 3103 ± 795 nmol/kg | 2220 ± 574 | 193 nmol/kg and 193 ± 56 nmol/kg | below the quantification limit (BQL); also recorded: BQL ^b | neither compound significantly affected seizure incidence | 9.8 | latency to tonic seizures ([4]; oral 12 μmol/kg 1 h before PTZ 50 mg/kg i.p.): 1748.0 ± 555.0 s; latency to tonic seizures ([4]; oral 24 μmol/kg 1 h before PTZ 50 mg/kg i.p.): 2995.0 ± 430.6 s; Latency to LORR ([5]; i.g. 15.6 μmol/kg): 35 min; Latency to LORR ([5]; i.g. 19.5 μmol/kg): 30 min |

Reference: PMC12073189, “Synthesis and Evaluation of a Novel Zuranolone Analog with High GABAA Receptor PAM Activity and Excellent Pharmacokinetic Profiles” (Molecules, 2025)
